From patent US20240270762A1, “PENICILLIN-BINDING PROTEIN INHIBITORS” (priority 2021, published 2024)
pEC50: −log10 of the molar value. ≈ marks a conversion by molar mass, not a printed value.

How the values were obtained:
K. pneumoniae SI-117 = assay: microbe, parasite or virus in culture; type: cell-based; conditions: Klebsiella pneumoniae, SI117, read-out: MIC K. pneumoniae SI-117
E. coli AG100 = assay: microbe, parasite or virus in culture; type: cell-based; conditions: Escherichia coli, AG100, read-out: MIC E. coli AG100
[1] = biological target: T1, PBP2 from Neisseria gonorrhoeae (FA19) (Neisseria gonorrhoeae, UniProt P08149); assay: Bocillin-FL fluorescence polarization competition binding, N. gonorrhoeae PBP2; conditions: fluorescence polarization competition binding assay using Bocillin-FL, read-out: N. gonorrhoeae PBP2 Potency
T1 construct: made in house
T1 sequence (P08149 whole entry): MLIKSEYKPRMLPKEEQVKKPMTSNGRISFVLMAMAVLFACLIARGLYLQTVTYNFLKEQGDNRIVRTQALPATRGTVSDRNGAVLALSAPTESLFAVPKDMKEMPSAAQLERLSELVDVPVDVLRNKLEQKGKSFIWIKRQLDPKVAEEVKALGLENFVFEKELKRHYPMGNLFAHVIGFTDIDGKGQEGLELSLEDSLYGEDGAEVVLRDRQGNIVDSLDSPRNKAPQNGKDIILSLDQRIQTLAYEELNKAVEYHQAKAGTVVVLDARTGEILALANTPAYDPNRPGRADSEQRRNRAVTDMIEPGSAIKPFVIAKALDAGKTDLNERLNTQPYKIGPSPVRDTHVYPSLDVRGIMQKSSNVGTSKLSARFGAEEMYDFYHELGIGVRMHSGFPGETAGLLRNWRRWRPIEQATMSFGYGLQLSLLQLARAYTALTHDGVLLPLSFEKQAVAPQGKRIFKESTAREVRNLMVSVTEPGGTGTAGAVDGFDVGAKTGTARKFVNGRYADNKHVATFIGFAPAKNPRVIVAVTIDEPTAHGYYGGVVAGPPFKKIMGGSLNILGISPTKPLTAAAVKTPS
Procedure, shortened: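 Fluorescence polarization competition with 0.1 μM Bocillin-FL (fluorescent penicillin V) against 0.25 μM N. gonorrhoeae FA19 PBP2 in 50 mM Hepes pH 8.0, 300 mM NaCl, 10% glycerol. Boronic acid inhibitors were preincubated with PBP, then Bocillin-FL was added and FP read (490/520 nm) up to 60 min. EC50 is the concentration halving PBP-bound Bocillin-FL.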

E. coli D22 = assay: microbe, parasite or virus in culture; type: cell-based; conditions: Escherichia coli, D22, read-out: MIC E. coli D22
A. baumannii ATCC 19606 = assay: microbe, parasite or virus in culture; type: cell-based; conditions: Acinetobacter baumannii, ATCC19606, read-out: MIC, A. baumannii ATCC 19606
P. aeruginosa ATCC 27853 = assay: microbe, parasite or virus in culture; type: cell-based; conditions: Pseudomonas aeruginosa, ATCC27853, read-out: MIC P. aeruginosa ATCC 27853
E. coli ATCC 25922 = assay: microbe, parasite or virus in culture; type: cell-based; conditions: Escherichia coli, ATCC25922, read-out: MIC E. coli 25922
E. coli 901C = assay: microbe, parasite or virus in culture; type: cell-based; conditions: Escherichia coli, read-out: MIC E. coli 901C
E. coli AG100A = assay: Broth microdilution MIC in CAMHB; type: cell-based; conditions: Escherichia coli, read-out: MIC E. coli AG100A
P. aeruginosa ATCC 35151 = assay: microbe, parasite or virus in culture; type: cell-based; conditions: Pseudomonas aeruginosa, ATCC35151, read-out: MIC P. aeruginosa ATCC 35151
K. pneumoniae UMM = assay: microbe, parasite or virus in culture; type: cell-based; conditions: Klebsiella pneumoniae, read-out: MIC K. pneumoniae UMM
K. pneumoniae 848844 = assay: microbe, parasite or virus in culture; type: cell-based; conditions: Klebsiella pneumoniae, 848844, read-out: MIC K. pneumoniae 848844
B. pseudomallei Bp82 = assay: microbe, parasite or virus in culture; type: cell-based; conditions: Burkholderia pseudomallei, BP82, read-out: Minimum inhibitory concentration, B. pseudomallei Bp82

Structure (SMILES)	MIC (K. pneumoniae SI-117)	MIC (E. coli AG100)	pEC50 [1]	MIC (E. coli D22)	MIC (A. baumannii ATCC 19606)	MIC (P. aeruginosa ATCC 27853)	MIC (E. coli ATCC 25922)	MIC (E. coli 901C)	MIC (E. coli AG100A)	MIC (P. aeruginosa ATCC 35151)	MIC (K. pneumoniae UMM)	MIC (K. pneumoniae 848844)	MIC (B. pseudomallei Bp82)
CS(=O)(=O)N1CCN(C(=O)N[C@H](C(=O)N[C@H]2Cc3cccc(C(=O)O)c3OB2O)c2ccc(P(=O)(O)O)cc2)C1=O (single isomer, unassigned) [Example 5]	> 128 mg/L	32 to 64 mg/L (≈ 52.4 to 105 µM)	> 5.00	8 to 16 mg/L (≈ 13.1 to 26.2 µM)	> 128 mg/L	> 128 mg/L	> 128 mg/L	< 1 mg/L	32 to 64 mg/L (≈ 52.4 to 105 µM)	8 to 16 mg/L (≈ 13.1 to 26.2 µM)	> 128 mg/L	> 128 mg/L	
CS(=O)(=O)N1CCN(C(=O)N[C@@H](C(=O)N[C@H]2Cc3cccc(C(=O)O)c3OB2O)c2ccc(P(=O)(O)O)cc2)C1=O (single isomer, unassigned) [Example 6]	> 128 mg/L	8 to 16 mg/L (≈ 13.1 to 26.2 µM)	> 5.00	2 to 4 mg/L (≈ 3.28 to 6.55 µM)	8 to 16 mg/L (≈ 13.1 to 26.2 µM)	> 128 mg/L	32 to 64 mg/L (≈ 52.4 to 105 µM)	< 1 mg/L	8 to 16 mg/L (≈ 13.1 to 26.2 µM)	< 1 mg/L	32 to 64 mg/L (≈ 52.4 to 105 µM)	> 128 mg/L	
CCN1CCN(C(=O)NC(C(=O)N[C@H]2Cc3cccc(C(=O)O)c3OB2O)c2ccc(P(=O)(O)O)cc2F)C(=O)C1=O (stereo partly drawn) [Example 1, (3R)-3-(2-(4-ethyl-2,3-dioxopiperazine-1-carboxamido)-2-(2-fluoro-4-phosphonophenyl)acetamido)-2-hydroxy-3,4-dihydro-2H-benzo[e][1,2]oxaborinine-8-carboxylic acid]	> 128 mg/L	32 to 64 mg/L (≈ 52.8 to 106 µM)	> 5.00	2 to 4 mg/L (≈ 3.3 to 6.6 µM)	32 to 64 mg/L (≈ 52.8 to 106 µM)	> 128 mg/L	> 128 mg/L	< 1 mg/L	8 to 16 mg/L (≈ 13.2 to 26.4 µM)	< 1 mg/L	32 to 64 mg/L (≈ 52.8 to 106 µM)	> 128 mg/L	
CCN1CCN(C(=O)NC(C(=O)N[C@H]2Cc3cccc(C(=O)O)c3OB2O)c2cc(P(=O)(O)O)ccc2F)C(=O)C1=O (stereo partly drawn) [Example 2, (3R)-3-(2-(4-ethyl-2,3-dioxopiperazine-1-carboxamido)-2-(2-fluoro-5-phosphonophenyl)acetamido)-2-hydroxy-3,4-dihydro-2H-benzo[e][1,2]oxaborinine-8-carboxylic acid]	> 128 mg/L	32 to 64 mg/L (≈ 52.8 to 106 µM)	> 5.00	2 to 4 mg/L (≈ 3.3 to 6.6 µM)	> 128 mg/L	> 128 mg/L	> 128 mg/L	< 1 mg/L	32 to 64 mg/L (≈ 52.8 to 106 µM)	< 1 mg/L	32 to 64 mg/L (≈ 52.8 to 106 µM)	> 128 mg/L	
NCCN1CCN(C(=O)NC(C(=O)N[C@H]2Cc3cccc(C(=O)O)c3OB2O)c2ccc(P(=O)(O)O)cc2)C(=O)C1=O (stereo partly drawn) [Example 3, (3R)-3-(2-(4-(2-aminoethyl)-2,3-dioxopiperazine-1-carboxamido)-2-(4-phosphonophenyl)acetamido)-2-hydroxy-3,4-dihydro-2H-benzo[e][1,2]oxaborinine-8-carboxylic acid]	> 128 mg/L	32 to 64 mg/L (≈ 53 to 106 µM)	> 5.00	8 to 16 mg/L (≈ 13.3 to 26.5 µM)	32 to 64 mg/L (≈ 53 to 106 µM)	> 128 mg/L	32 to 64 mg/L (≈ 53 to 106 µM)	2 to 4 mg/L (≈ 3.32 to 6.63 µM)	8 to 16 mg/L (≈ 13.3 to 26.5 µM)	< 1 mg/L	32 to 64 mg/L (≈ 53 to 106 µM)	> 128 mg/L	
O=C(O)c1cccc2c1OB(O)[C@@H](NC(=O)C(NC(=O)N1CCN(CC(F)(F)F)C(=O)C1=O)c1ccc(P(=O)(O)O)cc1)C2 (stereo partly drawn) [Example 4, (3R)-3-(2-(2,3-dioxo-4-(2,2,2-trifluoroethyl)piperazine-1-carboxamido)-2-(4-phosphonophenyl)acetamido)-2-hydroxy-3,4-dihydro-2H-benzo[e][1,2]oxaborinine-8-carboxylic acid]	> 128 mg/L	> 128 mg/L	> 5.00	8 to 16 mg/L (≈ 12.5 to 24.9 µM)	> 128 mg/L	> 128 mg/L	> 128 mg/L	< 1 mg/L	8 to 16 mg/L (≈ 12.5 to 24.9 µM)	8 to 16 mg/L (≈ 12.5 to 24.9 µM)	> 128 mg/L	> 128 mg/L	
O=C(NCCN1CCN(C(=O)N[C@@H](C(=O)N[C@H]2Cc3ccc(F)c(C(=O)O)c3OB2O)c2cc(F)c(O)c(O)c2Cl)C1=O)Nc1ccc(O)cc1 [Example 279, (R)-3-((R)-2-(2-chloro-5-fluoro-3,4-dihydroxyphenyl)-2-(3-(2-(3-(4-hydroxyphenyl)ureido)ethyl)-2-oxoimidazolidine-1-carboxamido)acetamido)-7-fluoro-2-hydroxy-3,4-dihydro-2H-benzo[e][1,2]oxaborinine-8-carboxylic acid]													< 1 mg/L
